Key:
human CDK4/cyclin D3 = target: T1, human CDK4/cyclin D3 (Homo sapiens, UniProt P11802); experiment: Inhibition of CDK4/cyclin D retinoblastoma kinase activity (Ki; % inhibition); assay type: biochemical
T1 construct: made in house; host or cells: insect cells co-infected with baculovirus vectors
How it was run: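 Radiometric filter-binding read-out: Rb residues 386-928 phosphorylated by 5 nM CDK4/cyclin D3(1-264) from baculovirus-infected insect cells, 25 μM ATP, HEPES pH 7.4, 30 °C. Run 20 min, or 60 min for tight-binding inhibitors. Screening at 30 nM theoretical compound; apparent Ki by competitive-inhibition fitting.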

HCT-116 cell line = experiment: Inhibition of cell growth, MTT tetrazolium salt assay; assay type: cell-based
How it was run: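 Cells in McCoy's 5A medium were given 4 h before compound addition in 0.5% (v/v) DMSO, then incubated 3–5 days at 37 °C, 5% CO2. After 4 h with 0.2 mg/mL MTT, DMSO-solubilized formazan was read at 540 nm; 50% and 90% growth-inhibitory concentrations came from semi-log plots against vehicle controls.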

CDK2/cyclin A = target: T2, CDK2/cyclin A (Homo sapiens, UniProt P24941); experiment: Inhibition of CDK2/cyclin A retinoblastoma kinase activity (Ki; % inhibition); assay type: biochemical
T2 construct: made in house; host or cells: CDK2: insect cells (baculovirus); cyclin A: E. coli
How it was run: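 Apparent Ki values came from fitting concentration-dependent activity data to competitive (or competitive tight-binding) models, and % inhibition from single 30 nM screens of library compounds. Activity was measured as ³²P/³³P incorporation from 25 μM ATP into an Rb substrate by 10 or 19 nM CDK2/delta cyclin A at 30 °C over 60–75 min, pH 7.4.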

[1] = HCT-116 cells, 0.25 μM compound

T1 sequence (P11802 whole entry): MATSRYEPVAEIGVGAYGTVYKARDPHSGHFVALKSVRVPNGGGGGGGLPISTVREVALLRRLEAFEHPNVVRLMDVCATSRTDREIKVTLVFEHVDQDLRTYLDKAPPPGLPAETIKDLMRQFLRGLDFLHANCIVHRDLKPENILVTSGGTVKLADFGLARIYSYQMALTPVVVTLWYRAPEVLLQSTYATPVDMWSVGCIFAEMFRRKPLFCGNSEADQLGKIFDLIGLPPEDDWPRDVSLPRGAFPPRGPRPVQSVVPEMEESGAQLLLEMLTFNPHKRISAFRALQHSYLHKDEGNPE
T1 sequence (P30281 1-264 partner limits assumed): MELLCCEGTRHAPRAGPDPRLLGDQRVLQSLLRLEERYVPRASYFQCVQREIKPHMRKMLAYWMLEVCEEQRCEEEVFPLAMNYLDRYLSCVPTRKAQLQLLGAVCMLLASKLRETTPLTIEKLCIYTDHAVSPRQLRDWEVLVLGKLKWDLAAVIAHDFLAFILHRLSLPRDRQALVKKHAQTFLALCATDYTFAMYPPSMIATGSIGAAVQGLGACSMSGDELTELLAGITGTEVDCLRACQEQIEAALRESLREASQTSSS

Row | SMILES | CDK4 % Inhibition at 0.03 μM (human CDK4/cyclin D3; 0.03 μM compound) [%] | HCT-116 % Inhibition at 0.1 μM (HCT-116 cell line; HCT-116 cells, 0.1 μM compound) [%] | HCT-116 % Inhibition at 0.25 μM (HCT-116 cell line; [1]) [%] | CDK2 % Inhibition at 0.03 μM (CDK2/cyclin A; 0.03 μM compound) [%] | CDK4 % Inhibition at 0.03 μM (human CDK4/cyclin D3; at 0.03 μM) [%] | HCT-116 % Inhibition at 0.25 μM (HCT-116 cell line; HCT-116, at 0.25 μM) [%] | CDK2 % Inhibition at 0.03 μM (CDK2/cyclin A; at 0.03 μM) [%] | further results
1 | COc1cccc(CNC(=O)c2ccc(Nc3nc(N)c(C(=O)c4c(F)cccc4F)s3)cc2)c1 [Example G246] | 35 | 20 | 62 | 32 |  |  |  | 
2 | Nc1nc(Nc2ccc(C(=O)N3CCC(O)(c4ccccc4)CC3)cc2)sc1C(=O)c1c(F)cccc1F [Example G202] | 25 | 20 | 48 | 5 |  |  |  | 
3 | Nc1nc(Nc2ccc(C(=O)Nc3ccccc3N3CCOCC3)cc2)sc1C(=O)c1c(F)cccc1F [Example G146] |  |  |  |  | 7 | 52 | 6 | HCT-116 % Inhibition at 0.1 μM (HCT-116 cell line; HCT-116, at 0.1 μM): 1%
4 | Nc1nc(Nc2ccc(C(=O)N[C@H](CO)CC3CCCCC3)cc2)sc1C(=O)c1c(F)cccc1F [Example G359] | −5 | 25 | 69 | −7 |  |  |  | 
5 | Nc1nc(Nc2ccc(C(=O)N3CCOCC3)cc2)sc1C(=O)c1c(F)cccc1F [Example G10] |  |  |  |  | −2 | 51 | −4 | 
6 | COC(=O)c1cccc(NC(=O)c2ccc(Nc3nc(N)c(C(=O)c4c(F)cccc4F)s3)cc2)c1 [Example G106] |  |  |  |  | 7 | 61 | 7 | HCT-116 % Inhibition at 0.1 μM (HCT-116 cell line; HCT-116, at 0.1 μM): 0%
7 | CC1CN(C(=O)c2ccc(Nc3nc(N)c(C(=O)c4c(F)cccc4F)s3)cc2)CC(C)O1 (stereo not drawn) [Example G18] |  |  |  |  | 4 | 41 | −10 | 
8 | Cc1cccc(CNC(=O)c2ccc(Nc3nc(N)c(C(=O)c4c(F)cccc4F)s3)cc2)c1C [Example G294] | 29 | 15 | 74 | 30 |  |  |  | 
9 | CCN(CCc1ccccn1)C(=O)c1ccc(Nc2nc(N)c(C(=O)c3c(F)cccc3F)s2)cc1 [Example G251] | 11 | 16 | 48 | 10 |  |  |  | 
10 | Nc1nc(Nc2ccc(C(=O)NCc3ccc(F)cc3Cl)cc2)sc1C(=O)c1c(F)cccc1F [Example G278] | 27 | 6 | 76 | 25 |  |  |  | 
11 | COc1cc(CNC(=O)c2ccc(Nc3nc(N)c(C(=O)c4c(F)cccc4F)s3)cc2)cc(OC)c1 [Example G262] | 28 | 24 | 59 | 1 |  |  |  | 
12 | NC(=O)C1CCCN(C(=O)c2ccc(Nc3nc(N)c(C(=O)c4c(F)cccc4F)s3)cc2)C1 (stereo not drawn) [Example G41] |  |  |  |  | 10 | 50 | 11 | 
13 | CN1CC(CNC(=O)c2ccc(Nc3nc(N)c(C(=O)c4c(F)cccc4F)s3)cc2)C1 [Example A75, 4-[4-Amino-5-(2,6-difluoro-benzoyl)-thiazol-2-ylamino]-N-(1-methyl-azetidin-3-ylmethyl)-benzamide] |  |  |  |  |  |  |  | Ki (human CDK4/cyclin D3; apparent Ki, CDK4/cyclin D3, Rb substrate): 51 nM; IC50 (HCT-116 cell line; Homo sapiens, HCT-116, 120 h, MTT, three to five days): 1900 nM; Ki (CDK2/cyclin A; apparent Ki, CDK2/cyclin A, Rb substrate): 7.3 nM

— patent publication US6720346B2, “Thiazole benzamide derivatives and pharmaceutical compositions for inhibiting cell proliferation” (Agouron Pharmaceuticals, Inc., priority 2001, dated 2004)
